# pIC50: −log10 of the molar value.
# How the values were obtained:
# Plasma = assay: Total steady state plasma concentration in Sprague-Dawley rat at 5 mg/kg, po; type: ADME, organism-based; design: dose 5 mg/kg, route oral; conditions: in vivo
# [1] = Oral bioavailability in human; conditions: in vivo
# MDR1 (P-gp, ABCB1) [2] = target: T1, MDR1 (P-gp, ABCB1) (Homo sapiens, UniProt P08183); assay: Inhibition of human recombinant MDR1 in cell membrane fraction preincubated for 5 mins at 0.01 uM measured after 40 mins by Pgp-Glo luciferase assay; type: cell-based
# [3] = Fraction unbound in Sprague-Dawley rat at 5 mg/kg, po; conditions: in vivo
# [4] = target: ATP-dependent translocase ABCB1 (Homo sapiens, UniProt P08183); assay: Inhibition of human recombinant MDR1 in cell membrane fraction preincubated for 5 mins measured after 40 mins by Pgp-Glo luciferase assay; type: cell-based
# MDR1 (P-gp, ABCB1) [5] = target: T1, MDR1 (P-gp, ABCB1); assay: Inhibition of human recombinant MDR1 in cell membrane fraction preincubated for 5 mins at 10 uM measured after 40 mins by Pgp-Glo luciferase assay; type: cell-based
# MDR1 (P-gp, ABCB1) [6] = target: T1, MDR1 (P-gp, ABCB1); assay: Inhibition of human recombinant MDR1 in cell membrane fraction preincubated for 5 mins at 100 uM measured after 40 mins by Pgp-Glo luciferase assay; type: cell-based
# MDR1 (P-gp, ABCB1) [7] = target: T1, MDR1 (P-gp, ABCB1); assay: Inhibition of human recombinant MDR1 in cell membrane fraction preincubated for 5 mins at 0.1 uM measured after 40 mins by Pgp-Glo luciferase assay; type: cell-based
# [8] = Absolute bioavailability in dog; type: ADME, organism-based, Canis lupus familiaris; conditions: in vivo
# MDR1 (P-gp, ABCB1) [9] = target: T1, MDR1 (P-gp, ABCB1); assay: Inhibition of human recombinant MDR1 in cell membrane fraction preincubated for 5 mins at 1 uM measured after 40 mins by Pgp-Glo luciferase assay; type: cell-based
# CYP3A4 [10] = target: T2, CYP3A4 (Homo sapiens, UniProt P08684); assay: Inhibition of human recombinant CYP3A4 expressed in insect cell microsomes preincubated for 10 mins at 10 uM by fluorescence assay; conditions: recombinant enzyme
# CYP3A4 [11] = target: T2, CYP3A4; assay: Inhibition of human recombinant CYP3A4 expressed in insect cell microsomes preincubated for 10 mins at 0.1 uM by fluorescence assay; conditions: recombinant enzyme
# CYP3A4 [12] = target: T2, CYP3A4; assay: Inhibition of human recombinant CYP3A4 expressed in insect cell microsomes preincubated for 10 mins at 1 uM by fluorescence assay; conditions: recombinant enzyme
# T1 sequence (P08183 whole entry): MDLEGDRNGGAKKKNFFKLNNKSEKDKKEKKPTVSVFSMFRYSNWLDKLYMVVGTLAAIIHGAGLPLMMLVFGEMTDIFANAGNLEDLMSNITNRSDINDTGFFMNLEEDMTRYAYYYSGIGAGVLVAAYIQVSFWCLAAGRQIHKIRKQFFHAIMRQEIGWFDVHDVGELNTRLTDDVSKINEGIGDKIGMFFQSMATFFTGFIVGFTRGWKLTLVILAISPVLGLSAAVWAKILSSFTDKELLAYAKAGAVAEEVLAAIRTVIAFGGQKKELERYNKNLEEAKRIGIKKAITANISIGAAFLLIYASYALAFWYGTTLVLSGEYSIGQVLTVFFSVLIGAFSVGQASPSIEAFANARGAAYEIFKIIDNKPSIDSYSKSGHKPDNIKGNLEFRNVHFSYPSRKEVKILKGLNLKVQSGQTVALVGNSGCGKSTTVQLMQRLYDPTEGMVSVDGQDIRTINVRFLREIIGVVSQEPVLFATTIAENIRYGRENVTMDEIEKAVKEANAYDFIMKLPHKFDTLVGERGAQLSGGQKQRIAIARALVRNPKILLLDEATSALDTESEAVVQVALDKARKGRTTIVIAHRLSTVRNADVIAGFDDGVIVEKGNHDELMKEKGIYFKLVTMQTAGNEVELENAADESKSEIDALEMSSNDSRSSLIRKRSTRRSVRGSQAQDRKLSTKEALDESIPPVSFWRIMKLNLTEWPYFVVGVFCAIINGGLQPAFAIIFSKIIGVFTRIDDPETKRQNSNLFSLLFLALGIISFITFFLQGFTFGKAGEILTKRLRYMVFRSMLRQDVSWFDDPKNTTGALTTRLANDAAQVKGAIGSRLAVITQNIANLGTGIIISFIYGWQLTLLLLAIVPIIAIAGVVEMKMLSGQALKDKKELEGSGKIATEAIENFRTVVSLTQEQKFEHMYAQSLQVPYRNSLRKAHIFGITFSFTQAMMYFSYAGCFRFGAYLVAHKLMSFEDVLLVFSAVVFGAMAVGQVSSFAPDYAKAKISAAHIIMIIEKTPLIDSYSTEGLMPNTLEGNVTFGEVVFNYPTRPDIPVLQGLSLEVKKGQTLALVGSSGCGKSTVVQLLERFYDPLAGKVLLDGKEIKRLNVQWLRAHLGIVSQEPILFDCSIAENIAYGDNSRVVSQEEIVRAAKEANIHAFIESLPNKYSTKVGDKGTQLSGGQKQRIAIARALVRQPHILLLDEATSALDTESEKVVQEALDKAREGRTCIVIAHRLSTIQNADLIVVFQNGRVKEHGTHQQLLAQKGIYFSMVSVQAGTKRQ
# T2 sequence (P08684 whole entry): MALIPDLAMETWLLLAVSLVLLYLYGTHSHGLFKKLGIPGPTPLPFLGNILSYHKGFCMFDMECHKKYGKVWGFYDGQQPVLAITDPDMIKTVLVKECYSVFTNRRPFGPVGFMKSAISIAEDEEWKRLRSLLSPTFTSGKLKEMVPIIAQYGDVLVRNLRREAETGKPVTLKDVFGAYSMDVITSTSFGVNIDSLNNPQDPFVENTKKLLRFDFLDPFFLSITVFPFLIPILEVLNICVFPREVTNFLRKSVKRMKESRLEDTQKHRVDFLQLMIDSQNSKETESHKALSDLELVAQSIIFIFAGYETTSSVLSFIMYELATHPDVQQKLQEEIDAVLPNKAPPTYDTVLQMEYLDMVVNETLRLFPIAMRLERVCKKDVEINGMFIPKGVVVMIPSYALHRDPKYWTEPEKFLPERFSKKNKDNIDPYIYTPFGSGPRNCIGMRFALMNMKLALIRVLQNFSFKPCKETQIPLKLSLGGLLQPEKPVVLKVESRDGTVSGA
# Sequence of ATP-dependent translocase ABCB1 (P08183 whole entry): as the sequence (P08183 whole entry) above
smiles,measurement,setting,value
COc1cc2c(cc1OC)C(=O)C(CC1CCN(Cc3ccccc3)CC1)C2 (stereo not drawn) [DONEPEZIL],concentration,Plasma,60 nM
same,bioavailability,[1],92%
same,"inhibition at 40 min, 0.01 µM","MDR1 (P-gp, ABCB1) [2]",< 15%
same,fraction unbound,[3],0.04
same,pIC50,[4],4.46
same,"inhibition at 40 min, 10 µM","MDR1 (P-gp, ABCB1) [5]",23.5%
same,"inhibition at 40 min, 100 µM","MDR1 (P-gp, ABCB1) [6]",76%
same,"inhibition at 40 min, 0.1 µM","MDR1 (P-gp, ABCB1) [7]",< 15%
same,bioavailability,[8],50%
same,"inhibition at 40 min, 1 µM","MDR1 (P-gp, ABCB1) [9]",17.8%
CC(=O)N1CCN(c2ccc(OCC3COC(Cn4ccnc4)(c4ccc(Cl)cc4Cl)O3)cc2)CC1 (stereo not drawn) [KETOCONAZOLE],inhibition at 10 µM,CYP3A4 [10],92.3%
same,inhibition at 0.1 µM,CYP3A4 [11],33.9%
same,inhibition at 1 µM,CYP3A4 [12],87.2%

# Source: ChEMBL document CHEMBL3351915 (Bioorg Med Chem Lett, 2015)
